Experimental data published in patent US9957264B2 (Merck Sharp & Dohme Corp., priority 2013, dated 2018).

Columns and labels:
[1] = target: JAK2 (recombinant purified GST-tagged catalytic domain) (Homo sapiens (Human), UniProt O60674); assay: Jak Biochemical HTRF Assay (JAK2); settings: [ATP] 8.5 μM
[2] = target: JAK1 (recombinant purified GST-tagged catalytic domain) (Homo sapiens (Human), UniProt P23458); assay: Jak Biochemical HTRF Assay (JAK1); settings: [ATP] 31.8 μM
Outline: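 Phosphorylation of a common biotinylated peptide by each catalytic domain is measured by HTRF. The ATP-started reaction runs 120 min at room temperature before EDTA quench and detection.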

Sequence of JAK2 (recombinant purified GST-tagged catalytic domain) (O60674 849-1124): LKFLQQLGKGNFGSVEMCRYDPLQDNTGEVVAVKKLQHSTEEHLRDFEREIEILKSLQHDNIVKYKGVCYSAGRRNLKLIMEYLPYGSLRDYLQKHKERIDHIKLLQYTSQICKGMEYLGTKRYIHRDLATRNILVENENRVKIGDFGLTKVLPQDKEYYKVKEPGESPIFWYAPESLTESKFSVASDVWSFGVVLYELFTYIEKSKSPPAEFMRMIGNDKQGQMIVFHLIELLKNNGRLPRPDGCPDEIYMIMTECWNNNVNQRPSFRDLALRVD
Sequence of JAK1 (recombinant purified GST-tagged catalytic domain) (P23458 875-1153): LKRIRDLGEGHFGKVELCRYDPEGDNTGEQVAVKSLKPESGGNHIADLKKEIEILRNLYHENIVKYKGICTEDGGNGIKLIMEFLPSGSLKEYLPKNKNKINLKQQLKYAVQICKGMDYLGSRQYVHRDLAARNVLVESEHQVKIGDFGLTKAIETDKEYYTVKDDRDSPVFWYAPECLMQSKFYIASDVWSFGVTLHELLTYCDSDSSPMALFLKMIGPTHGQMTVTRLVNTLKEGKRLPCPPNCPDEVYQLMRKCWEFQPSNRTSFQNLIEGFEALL

Compound: CN(C)c1ccc2cc(Nc3nn([C@]4(CC#N)CCCOC4)c4cc[nH]c(=O)c34)ccc2n1 [Example 5-225, (S)-2-(3-(3-((2-(dimethylamino)quinolin-6-yl)amino)-4-oxo-4,5-dihydro-1H-pyrazolo[4,3-c]pyridin-1-yl)tetrahydro-2H-pyran-3-yl)acetonitrile]
- IC50 [1]: 2.3 nM
- IC50 [2]: 0.15 nM

Compound: Cc1ccc2cc(Nc3nn([C@]4(CC#N)CCCOC4)c4cc[nH]c(=O)c34)ccc2n1 [Example 5-226, (S)-2-(3-(3-((2-methylquinolin-6-yl)amino)-4-oxo-4,5-dihydro-1H-pyrazolo [4,3-c]pyridin-1-yl)tetrahydro-2H-pyran-3-yl)acetonitrile]
- IC50 [1]: 2.94 nM
- IC50 [2]: 0.11 nM

Compound: C[C@H]1CN(c2ccc3cc(Nc4nn([C@]5(CC#N)CC[C@@H](C(=O)OC(C)(C)C)OC5)c5cc[nH]c(=O)c45)ccc3n2)CCO1 [Example 5-228, (2S,5S)-tert-butyl 5-(cyanomethyl)-5-(3-((2-((S)-2-methylmorpholino)quinolin-6-yl)amino)-4-oxo-4,5-dihydro-1H-pyrazolo[4,3-c]pyridin-1-yl)tetrahydro-2H-pyran-2-carboxylate]
- IC50 [1]: 1.06 nM
- IC50 [2]: 0.25 nM

Compound: CC(C)(C)OC(=O)[C@@H]1CC[C@@](CC#N)(n2nc(Nc3ccc4nc(N5CC6CCC(C5)O6)ccc4c3)c3c(=O)[nH]ccc32)CO1 [Example 5-229, (2S,5S)-tert-butyl 5-(3-((2-(8-oxa-3-azabicyclo[3.2.1]octan-3-yl)quinolin-6-yl)amino)-4-oxo-4,5-dihydro-1H-pyrazolo[4,3-c]pyridin-1-yl)-5-(cyanomethyl) tetrahydro-2H-pyran-2-carboxylate]
- IC50 [1]: 1.39 nM
- IC50 [2]: 0.34 nM

Compound: CC(C)(C)OC(=O)[C@@H]1CC[C@@](CC#N)(n2nc(Nc3ccc(S(=O)(=O)C(C)(C)C)cc3)c3c(=O)[nH]ccc32)CO1 [Example 5-235, (2S,5S)-tert-butyl 5-(3-((4-(tert-butylsulfonyl)phenyl)amino)-4-oxo-4,5-dihydro-1H-pyrazolo[4,3-c]pyridin-1-yl)-5-(cyanomethyl) tetrahydro-2H-pyran-2-carboxylate]
- IC50 [1]: 0.21 nM
- IC50 [2]: 0.14 nM

Compound: CC(C)(C)OC(=O)[C@@H]1CC[C@@](CC#N)(n2nc(Nc3ccc(S(=O)(=O)C4CC4)cc3)c3c(=O)[nH]ccc32)CO1 [Example 5-236, (2S,5S)-tert-butyl 5-(cyanomethyl)-5-(3-((4-(cyclopropylsulfonyl)phenyl)amino)-4-oxo-4,5-dihydro-1H-pyrazolo[4,3-c]pyridin-1-yl)tetrahydro-2H-pyran-2-carboxylate]
- IC50 [1]: 0.25 nM
- IC50 [2]: 0.12 nM

Compound: CC(C)S(=O)(=O)c1ccc(Nc2nn([C@]3(CC#N)CC[C@@H](C(=O)OC(C)(C)C)OC3)c3cc[nH]c(=O)c23)cc1 [Example 5-237, (2S,5S)-tert-butyl 5-(cyanomethyl)-5-(3-((4-(isopropylsulfonyl)phenyl)amino)-4-oxo-4,5-dihydro-1H-pyrazolo[4,3-c]pyridin-1-yl)tetrahydro-2H-pyran-2-carboxylate]
- IC50 [1]: 0.28 nM
- IC50 [2]: 0.15 nM

Compound: CN(C)C(=O)c1ccc2cc(Nc3nn([C@]4(CC#N)CC[C@@H](C(=O)OC(C)(C)C)OC4)c4cc[nH]c(=O)c34)ccc2n1 [Example 5-238, (2S,5S)-tert-butyl 5-(cyanomethyl)-5-(3-((2-(dimethylcarbamoyl)quinolin-6-yl)amino)-4-oxo-4,5-dihydro-1H-pyrazolo[4,3-c]pyridin-1-yl)tetrahydro-2H-pyran-2-carboxylate]
- IC50 [1]: 0.48 nM
- IC50 [2]: 0.11 nM

Compound: CC(C)(C)N1Cc2cc(Nc3nn(C4(CC#N)CCOCC4)c4cc[nH]c(=O)c34)ccc2S1(=O)=O [Example 5-251, 2-(4-(3-((2-(tert-butyl)-1,1-dioxido-2,3-dihydrobenzo[d]isothiazol-5-yl)amino)-4-oxo-4,5-dihydro-1H-pyrazolo[4,3-c]pyridin-1-yl)tetrahydro-2H-pyran-4-yl)acetonitrile]
- IC50 [1]: 0.78 nM
- IC50 [2]: 0.06 nM

Compound: CC(C)(C)S(=O)(=O)c1ccc(Nc2nn(C3(CC#N)CCOCC3)c3cc[nH]c(=O)c23)cc1 [Example 5-252, 2-(4-(3-((4-(tert-butylsulfonyl)phenyl)amino)-4-oxo-4,5-dihydro-1H-pyrazolo[4,3-c]pyridin-1-yl)tetrahydro-2H-pyran-4-yl)acetonitrile]
- IC50 [1]: 0.84 nM
- IC50 [2]: 0.34 nM

Compound: CN(C(C)(C)C)S(=O)(=O)c1ccc(Nc2nn(C3(CC#N)CCOCC3)c3cc[nH]c(=O)c23)cc1 [Example 5-253, N-(tert-butyl)-4-((1-(4-(cyanomethyl)tetrahydro-2H-pyran-4-yl)-4-oxo-4,5-dihydro-1H-pyrazolo[4,3-c]pyridin-3-yl)amino)-N-methylbenzenesulfonamide]
- IC50 [1]: 1.4 nM
- IC50 [2]: 0.72 nM

Compound: CN(C)S(=O)(=O)c1ccc(Nc2nn(C3(CC#N)CCOCC3)c3cc[nH]c(=O)c23)cc1 [Example 5-254, 4-((1-(4-(cyanomethyl)tetrahydro-2H-pyran-4-yl)-4-oxo-4,5-dihydro-1H-pyrazolo[4,3-c]pyridin-3-yl)amino)-N,N-dimethylbenzenesulfonamide]
- IC50 [1]: 1.4 nM
- IC50 [2]: 0.66 nM

Compound: CC(C)NC(C)(C)c1ccc(Nc2nn([C@@]3(CC#N)CCN(C(=O)OC(C)(C)C)C[C@H]3F)c3cc[nH]c(=O)c23)cc1 [Example 5-273, tert-butyl (3R,4R)-4-(cyanomethyl)-3-fluoro-4-{3-[(4-{1-methyl-1-[(1-methylethyl)amino]ethyl}phenyl)amino]-4-oxo-4,5-dihydro-1H-pyrazolo[4,3-c]pyridin-1-yl}piperidine-1-carboxylate]
- IC50 [1]: 0.14 nM
- IC50 [2]: 0.17 nM

Compound: CC(C)NC(C)(C)c1ccc(Nc2nn([C@]3(CC#N)CC[C@@H](C(=O)OC(C)(C)C)OC3)c3cc[nH]c(=O)c23)cc1 [Example 5-274, (2S,5S)-tert-butyl 5-(cyanomethyl)-5-(3-((4-(2-(isopropylamino)propan-2-yl)phenyl)amino)-4-oxo-4,5-dihydro-1H-pyrazolo[4,3-c]pyridin-1-yl)tetrahydro-2H-pyran-2-carboxylate]
- IC50 [1]: 0.26 nM
- IC50 [2]: 0.36 nM

Compound: COC(c1ccc(Nc2nn([C@@]3(CC#N)CCN(C(=O)OC(C)(C)C)C[C@H]3F)c3cc[nH]c(=O)c23)cc1)C(F)(F)F (stereo partly drawn) [Example 5-275]
- IC50 [1]: 0.09 nM
- IC50 [2]: 0.17 nM

Compound: CC(C)NC(C)(C)c1ccc(Nc2nn(C3(CC#N)CCN(C(=O)OC(C)(C)C)CC3)c3cc[nH]c(=O)c23)cc1 [Example 5-276, tert-butyl 4-(cyanomethyl)-4-{3-[(4-{1-methyl-1-[(1-methylethyl)amino]ethyl}phenyl)amino]-4-oxo-4,5-dihydro-1H-pyrazolo[4,3-c]pyridin-1-yl}piperidine-1-carboxylate]
- IC50 [1]: 0.4 nM
- IC50 [2]: 0.57 nM

Compound: Cc1cc(Nc2nn([C@@]3(CC#N)CCN(C(=O)OC(C)(C)C)C[C@H]3F)c3cc[nH]c(=O)c23)ccc1C(=O)N1CCSCC1 [Example 5-279, (3R,4R)-tert-butyl 4-(cyanomethyl)-3-fluoro-4-(3-((3-methyl-4-(thiomorpholine-4-carbonyl)phenyl)amino)-4-oxo-4,5-dihydro-1H-pyrazolo[4,3-c]pyridin-1-yl)piperidine-1-carboxylate]
- IC50 [1]: 0.12 nM
- IC50 [2]: 0.18 nM

Compound: CC(C)(C)OC(=O)N1CCC(CC#N)(n2nc(Nc3ccc(S(=O)(=O)NC4CCCCC4)cc3)c3c(=O)[nH]ccc32)CC1 [Example 5-292, tert-butyl 4-(cyanomethyl)-4-(3-((4-(N-cyclohexylsulfamoyl)phenyl)amino)-4-oxo-4,5-dihydro-1H-pyrazolo[4,3-c]pyridin-1-yl)piperidine-1-carboxylate]
- IC50 [1]: 1.92 nM
- IC50 [2]: 1.2 nM

Compound: CC(C)(C)OC(=O)N1CCC(CC#N)(n2nc(Nc3ccc(S(=O)(=O)N4CCCCC4)cc3)c3c(=O)[nH]ccc32)CC1 [Example 5-293, tert-butyl 4-(cyanomethyl)-4-(4-oxo-3-((4-(piperidin-1-ylsulfonyl)phenyl)amino)-4,5-dihydro-1H-pyrazolo[4,3-c]pyridin-1-yl)piperidine-1-carboxylate]
- IC50 [1]: 0.68 nM
- IC50 [2]: 0.43 nM

Compound: CC(C)(C)OC(=O)N1CCC(CC#N)(n2nc(Nc3ccc(S(=O)(=O)N4CCOCC4)cc3)c3c(=O)[nH]ccc32)CC1 [Example 5-294, tert-butyl 4-(cyanomethyl)-4-(3-((4-(morpholinosulfonyl)phenyl)amino)-4-oxo-4,5-dihydro-1H-pyrazolo[4,3-c]pyridin-1-yl)piperidine-1-carboxylate]
- IC50 [1]: 0.37 nM
- IC50 [2]: 0.22 nM

Compound: CC(C)NS(=O)(=O)c1ccc(Nc2nn(C3(CC#N)CCN(C(=O)OC(C)(C)C)CC3)c3cc[nH]c(=O)c23)cc1F [Example 5-295, tert-butyl 4-(cyanomethyl)-4-(3-((3-fluoro-4-(N-isopropylsulfamoyl)phenyl)amino)-4-oxo-4,5-dihydro-1H-pyrazolo[4,3-c]pyridin-1-yl)piperidine-1-carboxylate]
- IC50 [1]: 0.6 nM
- IC50 [2]: 0.42 nM

Compound: CC(C)(C)OC(=O)N1CCC(CC#N)(n2nc(Nc3ccc(S(=O)(=O)NCC4CC4)c(F)c3)c3c(=O)[nH]ccc32)CC1 [Example 5-296, tert-butyl 4-(cyanomethyl)-4-(3-((4-(N-(cyclopropylmethyl)sulfamoyl)-3-fluorophenyl)amino)-4-oxo-4,5-dihydro-1H-pyrazolo[4,3-c]pyridin-1-yl)piperidine-1-carboxylate]
- IC50 [1]: 0.91 nM
- IC50 [2]: 0.65 nM

Compound: N#CCC1(n2nc(Nc3ccc(F)cc3)c3c(=O)[nH]ccc32)CCNCC1 [Example 6, (4-{3-[(4-fluorophenyl)amino]-4-oxo-4,5-dihydro-1H-pyrazolo[4,3-c]pyridin-1-yl}piperidin-4-yl)acetonitrile]
- IC50 [1]: > 1500 nM
- IC50 [2]: 421 nM

Compound: N#CCC1(n2nc(Nc3ccc(F)cc3)c3c(=O)[nH]ccc32)CCN(C(=O)C2CC2)CC1 [Example 7, [1-(cyclopropylcarbonyl)-4-{3-[(4-fluorophenyl)amino]-4-oxo-4,5-dihydro-1H-pyrazolo[4,3-c]pyridin-1-yl}piperidin-4-yl]acetonitrile]
- IC50 [1]: 1.9 nM
- IC50 [2]: 0.09 nM
